Source: ChEMBL document CHEMBL3137667, “[Drug-induced liver injury; fourteenth updated edition of the bibliographic database of liver injuries and related drugs]” (Gastroenterol Clin Biol, 2004)

Experiments:
[1] = human, serum
[2] = human
[3] = human; remark: listed apart in the source
[4] = Highest frequency of acute liver toxicity observed during clinical trials, expressed as a percentage. [column '% AIGUE' in source]; details: human
[5] = human, serum; remark: listed apart in the source
[6] = Highest frequency of moderate liver toxicity observed during clinical trials, expressed as a percentage. [column '% BIOL' in source]; details: human
[7] = human; remark: listed apart in the source
[8] = Times to onset, minimal and maximal, observed in the indexed observations. [column 'DELAI' in source]; details: human
[9] = human, serum, 4383 h
[10] = human; remark: listed apart in the source
[11] = human; remark: listed apart in the source
[12] = human; remark: listed apart in the source
[13] = human; remark: listed apart in the source
[14] = human; remark: listed apart in the source
[15] = human; remark: listed apart in the source
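Wherever Hepatotoxicity (association with vascular disease) is given: count of indexed literature references reporting vascular liver injury in humans, e.g. peliosis hepatitis, hepatic veno-occlusive disease or Budd-Chiari syndrome.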
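Wherever Hepatotoxicity (benign tumour) is given: value is a count of indexed literature references citing a benign tumour confirmed by histopathology.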
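Wherever Hepatotoxicity (choleostasis) is given: human cholestatic liver injury, shown by histopathology or by peak ALT or AST elevation over alkaline phosphatase ratio below 2, value counts indexed literature reports.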
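Wherever Hepatotoxicity (chronic liver disease) is given: chronic liver injury confirmed by histopathology or persistently raised serum aminotransferase activity beyond 6 months, value given as the count of indexed literature references.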
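Wherever Hepatotoxicity (cirrhosis) is given: value is a count of indexed literature references reporting cirrhosis confirmed by histopathology.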
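Wherever Hepatotoxicity (cytolytic) is given: human cytolytic liver injury, shown by histopathology or by a ratio above 5 of peak ALT or AST elevation to alkaline phosphatase elevation, value counts indexed references.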
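Wherever Hepatotoxicity (granulomatous hepatitis) is given: value is a count of indexed literature references reporting granulomatous liver disease confirmed by histopathology.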
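Wherever Hepatotoxicity (malignant tumour) is given: malignant tumour confirmed by histopathology, value gives the count of indexed literature references reporting it.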
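Wherever Hepatotoxicity (severe hepatitis) is given: human clinical data: severe hepatitis, meaning potentially life-threatening liver failure or clinically observed cases, the value counts how many indexed literature references report it.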
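Wherever Hepatotoxicity (steatosis) is given: steatosis confirmed by histopathology, value is the count of indexed references.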

Row | Compound | Hepatotoxicity (acute) [1] | Hepatotoxicity (severe hepatitis) [2] | Hepatotoxicity (steatosis) [3] | Hepatotoxicity (acute) [4] [%] | Hepatotoxicity (moderate) [5] | Hepatotoxicity (moderate) [6] [%] | Hepatotoxicity (cirrhosis) [7] | Hepatotoxicity (time to onset) [8] | Hepatotoxicity (chronic liver disease) [9] | Hepatotoxicity (malignant tumour) [10] | Hepatotoxicity (benign tumour) [11] | Hepatotoxicity (association with vascular disease) [12] | Hepatotoxicity (cytolytic) [13] | Hepatotoxicity (choleostasis) [14] | Hepatotoxicity (granulomatous hepatitis) [15] | other results
1 | CC(C)NCC(O)c1ccc(NS(C)(=O)=O)cc1 (stereo not given) [SOTALOL] | 1 | 0 | 0 | 0 | 0 | 0 | 0 | 10 months | 1 | 0 | 0 | 0 | 1 | 0 | 0 | 
2 | CN1CCN2c3ncccc3Cc3ccccc3C2C1 (stereo not given) [MIRTAZAPINE] | 1 | 1 | 1 | 0 | 2 | 1 | 0 | 1 year - 3 years | 0 | 0 | 0 | 0 | 1 | 0 | 0 | 
3 | CCN1CCC[C@H]1CNC(=O)c1c(O)c(Cl)cc(Cl)c1OC [RACLOPRIDE] | 0 | 0 | 0 | 0 | 1 | 2.2 | 0 | 1 week - 2 weeks | 0 | 0 | 0 | 0 | 0 | 0 | 0 | 
4 | O=NN(CCCl)C(=O)N[C@H]1C(O)O[C@H](CO)[C@@H](O)[C@@H]1O (stereo not given in full) [CHLOROZOTOCIN] | 2 | 0 | 0 | 0 | 2 | 33 | 0 | 1.5 months | 0 | 0 | 0 | 0 | 1 | 1 | 0 | 
5 | CC1(C)S[C@@H]2[C@H](NC(=O)[C@H](C(=O)O)c3ccsc3)C(=O)N2[C@H]1C(=O)O.O=C(O)[C@H]1/C(=C/CO)O[C@@H]2CC(=O)N21 | 2 | 1 | 0 | 0 | 54 | 33 | 0 | 1 day - 6 weeks | 0 | 0 | 0 | 0 | 0 | 2 | 0 | 
6 | CC(=O)O[C@@]12CO[C@@H]1C[C@H](O)[C@@]1(C)C(=O)[C@H](O)C3=C(C)[C@@H](OC(=O)[C@H](O)[C@@H](NC(=O)OC(C)(C)C)c4ccccc4)C[C@@](O)([C@@H](OC(=O)c4ccccc4)[C@H]21)C3(C)C.O.O.O [DOCETAXEL] | 4 | 1 | 0 | 14.3 | 3 | 20 | 0 | 3 days - 8 days | 0 | 0 | 0 | 0 | 2 | 1 | 0 | 
7 | CC(C)c1cccc(C(C)C)c1O [PROPOFOL] | 2 |  | 0 |  | 0 |  | 0 | 1 day - 4 weeks | 0 | 0 | 0 | 0 |  |  |  | Hepatotoxicity (severe hepatitis) ([2]; Liver): 0; Hepatotoxicity (acute) ([4]; Liver): 0%; Hepatotoxicity (moderate) ([6]; Liver): 0%; Hepatotoxicity (cytolytic) ([13]; Liver): 1; Hepatotoxicity (choleostasis) ([14]; Liver): 1; Hepatotoxicity (granulomatous hepatitis) ([15]; Liver): 0
8 | O=C(NCCN1CCN(c2cccc3c2OC[C@H](CO)O3)CC1)c1ccc(F)cc1 [FLESINOXAN] | 0 | 0 | 0 | 0 | 1 | 12.5 | 0 | 6 weeks | 0 | 0 | 0 | 0 | 0 | 0 | 0 | 
9 | CS(=O)(=O)c1ccc2c(c1)N(CCCN1CCC(C(N)=O)CC1)c1ccccc1S2 [METOPIMAZINE] | 1 | 0 | 0 | 0 | 0 | 0 | 0 | 1 month | 0 | 0 | 0 | 0 | 1 | 1 | 0 | 
10 | CCCCCCCCCCCCCCCCOP(=O)([O-])OCC[N+](C)(C)C [MILTEFOSINE] | 3 | 0 | 0 | 2.2 | 5 | 55 | 0 | 2 weeks | 0 | 0 | 0 | 0 | 3 | 0 | 0 | 
11 | Cc1nnc(NS(=O)(=O)c2ccc(N)cc2)s1 [SULFAMETHIZOLE] | 4 | 0 | 0 | 0 | 0 | 0 | 0 | 1 month - 2 months | 0 | 0 | 0 | 0 | 2 | 1 | 0 | 
